Assay results as given in ChEMBL document CHEMBL4765372, “Design, synthesis and anti-inflammatory activity of 3-amino acid derivatives of ocotillol-type sapogenins” (Eur J Med Chem, 2020).
Calls of active or inactive are those of the source. The rule behind the calls is not given here.

Experiments:
RAW264.7 [1] = test: Cytotoxicity against mouse RAW264.7 assessed as reduction in cell viability at 20 uM measured after 24 hrs by MTT assay relative to control; type: cell-based; conditions: raw264.7, 24 h
RAW264.7 [2] = test: Antiinflammatory activity in mouse RAW264.7 cells assessed as inhibition of LPS-induced NO production at 20 uM after 24 hrs by Griess method; type: functional, cell-based
RAW264.7 [3] = test: Inhibition of LPS-induced NO production in mouse RAW264.7 cells assessed as reduction in COX-2 protein expression measured after 24 hrs by Western blot analysis; type: functional, cell-based; conditions: dose microM <=30, time 24.0 hrs
[4] = biological target: Mitogen-activated protein kinase 1 and 3 (ERK2 and ERK1) (Mus musculus) (UniProt P63085+Q63844); test: Inhibition of LPS-induced ERK1/2 phosphorylation in mouse RAW264.7 cell upto 30 uM measured after 2 hr by Western blot analysis; conditions: dose microM <=30, time 2.0 hrs
Chain of Mitogen-activated protein kinase 1 and 3 (ERK2 and ERK1) (Mus musculus) (P63085 whole entry, looked up): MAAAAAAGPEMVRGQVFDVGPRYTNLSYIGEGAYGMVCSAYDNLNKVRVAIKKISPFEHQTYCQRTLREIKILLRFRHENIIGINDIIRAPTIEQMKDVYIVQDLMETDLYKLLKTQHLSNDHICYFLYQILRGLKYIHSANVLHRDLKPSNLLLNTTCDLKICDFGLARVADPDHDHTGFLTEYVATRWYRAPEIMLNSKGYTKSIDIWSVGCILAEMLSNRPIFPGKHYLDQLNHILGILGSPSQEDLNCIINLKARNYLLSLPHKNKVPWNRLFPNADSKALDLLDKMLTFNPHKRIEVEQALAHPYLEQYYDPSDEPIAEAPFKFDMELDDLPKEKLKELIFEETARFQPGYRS
Chain of Mitogen-activated protein kinase 1 and 3 (ERK2 and ERK1) (Mus musculus) (Q63844 whole entry, looked up): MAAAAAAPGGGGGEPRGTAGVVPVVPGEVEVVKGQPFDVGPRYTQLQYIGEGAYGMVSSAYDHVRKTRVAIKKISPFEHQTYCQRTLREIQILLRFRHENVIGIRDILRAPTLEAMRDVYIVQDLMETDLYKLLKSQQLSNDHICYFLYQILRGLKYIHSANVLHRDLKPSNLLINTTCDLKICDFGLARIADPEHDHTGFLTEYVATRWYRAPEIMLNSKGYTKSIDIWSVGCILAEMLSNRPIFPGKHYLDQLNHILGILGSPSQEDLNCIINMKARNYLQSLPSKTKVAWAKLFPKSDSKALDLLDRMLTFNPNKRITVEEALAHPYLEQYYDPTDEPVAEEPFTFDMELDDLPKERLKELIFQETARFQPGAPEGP

RAW264.7 [5] = test: Inhibition of LPS-induced p38 phosphorylation in mouse RAW264.7 cell upto 30 uM measured after 2 hr by Western blot analysis; conditions: dose microM <=30, time 2.0 hrs
RAW264.7 [6] = test: Inhibition of LPS-induced IL-6 protein expression in mouse RAW264.7 cells upto 30 uM measured after 6 hrs by ELISA; type: functional, cell-based; conditions: dose microM <=30, time 6.0 hrs
RAW264.7 [7] = test: Inhibition of LPS-stimulated NFkappaB activation in mouse RAW264.7 cells assessed as reduction in LPS-induced IkappaB phosphorylation at 7.5 to 30 uM after 2 hrs by Western blot analysis; type: cell-based; conditions: dose 7.5-30 µM
RAW264.7 [8] = test: Inhibition of LPS-induced NO production in mouse RAW264.7 cells assessed as reduction in iNOS protein expression measured after 24 hrs by Western blot analysis; type: functional, cell-based; conditions: dose microM <=30, time 24.0 hrs
RAW264.7 [9] = test: Inhibition of LPS-induced TNFalpha protein expression in mouse RAW264.7 cells upto 30 uM measured after 6 hrs by ELISA; type: functional, cell-based; conditions: dose microM <=30, time 6.0 hrs
RAW264.7 [10] = test: Inhibition of LPS-induced JNK phosphorylation in mouse RAW264.7 cell upto 30 uM measured after 2 hr by Western blot analysis; conditions: dose microM <=30, time 2.0 hrs
[11] = biological target: Transcription factor p65 (Mus musculus) (UniProt Q04207); test: Inhibition of LPS-induced NFkappaB p65 nucleus translocation in mouse RAW264.7 cells at 30 uM measured after 2 hr by immunofluorescence microscopic analysis; type: cell-based
Chain of Transcription factor p65 (Mus musculus) (Q04207 whole entry): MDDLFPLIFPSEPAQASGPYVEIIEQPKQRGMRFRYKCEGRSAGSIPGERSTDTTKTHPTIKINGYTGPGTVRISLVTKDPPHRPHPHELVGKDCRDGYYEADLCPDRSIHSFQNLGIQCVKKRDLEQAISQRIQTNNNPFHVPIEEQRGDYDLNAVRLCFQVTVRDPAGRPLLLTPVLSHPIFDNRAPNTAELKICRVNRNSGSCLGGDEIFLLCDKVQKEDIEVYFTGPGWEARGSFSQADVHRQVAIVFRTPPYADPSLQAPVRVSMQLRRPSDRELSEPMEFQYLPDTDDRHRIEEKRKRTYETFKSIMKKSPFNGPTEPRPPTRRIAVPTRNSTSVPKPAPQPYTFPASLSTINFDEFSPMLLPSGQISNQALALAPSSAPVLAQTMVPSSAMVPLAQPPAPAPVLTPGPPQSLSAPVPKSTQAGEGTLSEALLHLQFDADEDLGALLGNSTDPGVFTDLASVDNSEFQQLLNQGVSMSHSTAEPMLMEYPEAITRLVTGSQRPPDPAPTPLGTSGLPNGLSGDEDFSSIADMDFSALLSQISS

Structure (SMILES)	Activity (RAW264.7 [1])	Activity (RAW264.7 [2])	other results
CC(C)(C)OC(=O)NCC(=O)NCC(=O)NCC(=O)O[C@H]1CC[C@]2(C)[C@H]3C[C@@H](O)[C@@H]4[C@@H]([C@]5(C)CC[C@H](C(C)(C)O)O5)CC[C@@]4(C)[C@]3(C)CC[C@H]2C1(C)C	Non-Toxic	inactive	
CC(C)(O)[C@H]1CC[C@@](C)([C@H]2CC[C@]3(C)[C@@H]2[C@H](O)C[C@@H]2[C@@]4(C)CC[C@H](O)C(C)(C)[C@@H]4CC[C@]23C)O1	Non-Toxic	Active	
CC(C)(O)[C@H]1CC[C@@](C)([C@H]2CC[C@]3(C)[C@@H]2[C@H](O)C[C@@H]2[C@@]4(C)CC[C@H](OC(=O)CN)C(C)(C)[C@@H]4CC[C@]23C)O1	Non-Toxic	Active	
CC(C)(O)[C@H]1CC[C@@](C)([C@H]2CC[C@]3(C)[C@@H]2[C@H](O)C[C@@H]2[C@@]4(C)CC[C@H](OC(=O)CNC(=O)CNC(=O)CN)C(C)(C)[C@@H]4CC[C@]23C)O1	Non-Toxic	Active	
CC(C)(C)OC(=O)NCCCC[C@H](NC(=O)OC(C)(C)C)C(=O)O[C@H]1CC[C@]2(C)[C@H]3C[C@@H](O)[C@@H]4[C@@H]([C@]5(C)CC[C@H](C(C)(C)O)O5)CC[C@@]4(C)[C@]3(C)CC[C@H]2C1(C)C	Non-Toxic	Active	
CC(C)(O)[C@@H]1CC[C@@](C)([C@H]2CC[C@]3(C)[C@@H]2[C@H](O)C[C@@H]2[C@@]4(C)CC[C@H](OC(=O)[C@@H](N)CCC(=O)O)C(C)(C)[C@@H]4CC[C@]23C)O1	Non-Toxic	Active	
CC(C)(O)[C@H]1CC[C@@](C)([C@H]2CC[C@]3(C)[C@@H]2[C@H](O)C[C@@H]2[C@@]4(C)CC[C@H](OC(=O)CNC(=O)CN)C(C)(C)[C@@H]4CC[C@]23C)O1	Non-Toxic	Active	
CC(C)(C)OC(=O)NCCCC[C@H](NC(=O)OC(C)(C)C)C(=O)O[C@H]1CC[C@]2(C)[C@H]3C[C@@H](O)[C@@H]4[C@@H]([C@]5(C)CC[C@@H](C(C)(C)O)O5)CC[C@@]4(C)[C@]3(C)CC[C@H]2C1(C)C	Non-Toxic	Active	
CC(C)(C)OC(=O)CC[C@H](NC(=O)OC(C)(C)C)C(=O)O[C@H]1CC[C@]2(C)[C@H]3C[C@@H](O)[C@@H]4[C@@H]([C@]5(C)CC[C@@H](C(C)(C)O)O5)CC[C@@]4(C)[C@]3(C)CC[C@H]2C1(C)C	Non-Toxic		
C[C@]12CCC(=O)C=C1CC[C@@H]1[C@@H]2[C@@H](O)C[C@@]2(C)[C@H]1CC[C@]2(O)C(=O)COC(=O)CCC(=O)[O-].[Na+] [HYDROCORTISONE SODIUM SUCCINATE]	Non-Toxic		
CC(C)(O)[C@@H]1CC[C@@](C)([C@H]2CC[C@]3(C)[C@@H]2[C@H](O)C[C@@H]2[C@@]4(C)CC[C@H](O)C(C)(C)[C@@H]4CC[C@]23C)O1	Non-Toxic	Active	
CC(C)(O)[C@H]1CC[C@@](C)([C@H]2CC[C@]3(C)[C@@H]2[C@H](O)C[C@@H]2[C@@]4(C)CC[C@H](OC(=O)[C@@H](N)CCCCN)C(C)(C)[C@@H]4CC[C@]23C)O1	Non-Toxic		
CC(C)(C)OC(=O)NCC(=O)NCC(=O)O[C@H]1CC[C@]2(C)[C@H]3C[C@@H](O)[C@@H]4[C@@H]([C@]5(C)CC[C@@H](C(C)(C)O)O5)CC[C@@]4(C)[C@]3(C)CC[C@H]2C1(C)C	Non-Toxic	Active	
CC(C)(O)[C@@H]1CC[C@@](C)([C@H]2CC[C@]3(C)[C@@H]2[C@H](O)C[C@@H]2[C@@]4(C)CC[C@H](OC(=O)[C@@H](N)Cc5ccccc5)C(C)(C)[C@@H]4CC[C@]23C)O1	Non-Toxic		
CC(C)(O)[C@@H]1CC[C@@](C)([C@H]2CC[C@]3(C)[C@@H]2[C@H](O)C[C@@H]2[C@@]4(C)CC[C@H](OC(=O)CNC(=O)CNC(=O)CN)C(C)(C)[C@@H]4CC[C@]23C)O1	Non-Toxic	Active	
CC(C)(C)OC(=O)NCC(=O)NCC(=O)NCC(=O)O[C@H]1CC[C@]2(C)[C@H]3C[C@@H](O)[C@@H]4[C@@H]([C@]5(C)CC[C@@H](C(C)(C)O)O5)CC[C@@]4(C)[C@]3(C)CC[C@H]2C1(C)C	Non-Toxic		
CC(C)(O)[C@@H]1CC[C@@](C)([C@H]2CC[C@]3(C)[C@@H]2[C@H](O)C[C@@H]2[C@@]4(C)CC[C@H](OC(=O)CN)C(C)(C)[C@@H]4CC[C@]23C)O1	Non-Toxic	Active	
CC(C)(C)OC(=O)NCC(=O)O[C@H]1CC[C@]2(C)[C@H]3C[C@@H](O)[C@@H]4[C@@H]([C@]5(C)CC[C@@H](C(C)(C)O)O5)CC[C@@]4(C)[C@]3(C)CC[C@H]2C1(C)C	Non-Toxic	Active	
CC(C)(O)[C@H]1CC[C@@](C)([C@H]2CC[C@]3(C)[C@@H]2[C@H](O)C[C@@H]2[C@@]4(C)CC[C@H](OC(=O)[C@@H](N)CCC(=O)O)C(C)(C)[C@@H]4CC[C@]23C)O1	Non-Toxic	Active	
CC(C)(O)[C@@H]1CC[C@@](C)([C@H]2CC[C@]3(C)[C@@H]2[C@H](O)C[C@@H]2[C@@]4(C)CC[C@H](OC(=O)CNC(=O)CN)C(C)(C)[C@@H]4CC[C@]23C)O1	Non-Toxic	Active	
CC(C)(C)OC(=O)NCC(=O)O[C@H]1CC[C@]2(C)[C@H]3C[C@@H](O)[C@@H]4[C@@H]([C@]5(C)CC[C@H](C(C)(C)O)O5)CC[C@@]4(C)[C@]3(C)CC[C@H]2C1(C)C	Non-Toxic	Active	
CC(C)(O)[C@@H]1CC[C@@](C)([C@H]2CC[C@]3(C)[C@@H]2[C@H](O)C[C@@H]2[C@@]4(C)CC[C@H](OC(=O)[C@@H](N)CCCCN)C(C)(C)[C@@H]4CC[C@]23C)O1	Non-Toxic		
CC(C)(O)[C@H]1CC[C@@](C)([C@H]2CC[C@]3(C)[C@@H]2[C@H](O)C[C@@H]2[C@@]4(C)CC[C@H](OC(=O)[C@@H](N)Cc5ccccc5)C(C)(C)[C@@H]4CC[C@]23C)O1	Non-Toxic		
CC(C)(C)OC(=O)CC[C@H](NC(=O)OC(C)(C)C)C(=O)O[C@H]1CC[C@]2(C)[C@H]3C[C@@H](O)[C@@H]4[C@@H]([C@]5(C)CC[C@H](C(C)(C)O)O5)CC[C@@]4(C)[C@]3(C)CC[C@H]2C1(C)C	Non-Toxic		
CC(C)(C)OC(=O)NCC(=O)NCC(=O)O[C@H]1CC[C@]2(C)[C@H]3C[C@@H](O)[C@@H]4[C@@H]([C@]5(C)CC[C@H](C(C)(C)O)O5)CC[C@@]4(C)[C@]3(C)CC[C@H]2C1(C)C	Non-Toxic	Active	inhibition (RAW264.7 [3]): Dose-dependent effect; inhibition [4]: Dose-dependent effect; inhibition (RAW264.7 [5]): Dose-dependent effect; inhibition (RAW264.7 [6]): Dose-dependent effect; inhibition (RAW264.7 [7]): Dose-dependent effect; inhibition (RAW264.7 [8]): Dose-dependent effect; inhibition (RAW264.7 [9]): Dose-dependent effect; inhibition (RAW264.7 [10]): inactive; inhibition [11]: Dose-dependent effect
CC(C)(C)OC(=O)N[C@@H](Cc1ccccc1)C(=O)O[C@H]1CC[C@]2(C)[C@H]3C[C@@H](O)[C@@H]4[C@@H]([C@]5(C)CC[C@@H](C(C)(C)O)O5)CC[C@@]4(C)[C@]3(C)CC[C@H]2C1(C)C	Non-Toxic		
CC(C)(C)OC(=O)N[C@@H](Cc1ccccc1)C(=O)O[C@H]1CC[C@]2(C)[C@H]3C[C@@H](O)[C@@H]4[C@@H]([C@]5(C)CC[C@H](C(C)(C)O)O5)CC[C@@]4(C)[C@]3(C)CC[C@H]2C1(C)C	Non-Toxic		
